The target in the assay is GCN2 (Homo sapiens, UniProt Q9P2K8). Nature of the assay: GCN2 enzymatic endpoint assay: phosphorylation of GFP-eIF2α measured by TR-FRET (Lanthascreen). Type of assay: biochemical. To be noted: tested as described in Example 77; compound and/or hydrochloride, dihydrochloride or trifluoroacetic acid salt; read-out: IC 50 Activity. In short, it runs like this: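 Phosphorylated eIF2α read by Lanthascreen TR-FRET (acceptor 520 nm over donor 495 nm) after EDTA stop. The reaction ran 90 min at room temperature on 80 nM GFP-eIF2α with 2 μM ATP.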

The values below come from patent US11046699B2, “Pyrazolo-pyrimidin-amino-cycloalkyl compounds and their therapeutic uses” (RAPT THERAPEUTICS, INC., priority 2018, dated 2021).

GCN2, sequence (Q9P2K8 whole entry): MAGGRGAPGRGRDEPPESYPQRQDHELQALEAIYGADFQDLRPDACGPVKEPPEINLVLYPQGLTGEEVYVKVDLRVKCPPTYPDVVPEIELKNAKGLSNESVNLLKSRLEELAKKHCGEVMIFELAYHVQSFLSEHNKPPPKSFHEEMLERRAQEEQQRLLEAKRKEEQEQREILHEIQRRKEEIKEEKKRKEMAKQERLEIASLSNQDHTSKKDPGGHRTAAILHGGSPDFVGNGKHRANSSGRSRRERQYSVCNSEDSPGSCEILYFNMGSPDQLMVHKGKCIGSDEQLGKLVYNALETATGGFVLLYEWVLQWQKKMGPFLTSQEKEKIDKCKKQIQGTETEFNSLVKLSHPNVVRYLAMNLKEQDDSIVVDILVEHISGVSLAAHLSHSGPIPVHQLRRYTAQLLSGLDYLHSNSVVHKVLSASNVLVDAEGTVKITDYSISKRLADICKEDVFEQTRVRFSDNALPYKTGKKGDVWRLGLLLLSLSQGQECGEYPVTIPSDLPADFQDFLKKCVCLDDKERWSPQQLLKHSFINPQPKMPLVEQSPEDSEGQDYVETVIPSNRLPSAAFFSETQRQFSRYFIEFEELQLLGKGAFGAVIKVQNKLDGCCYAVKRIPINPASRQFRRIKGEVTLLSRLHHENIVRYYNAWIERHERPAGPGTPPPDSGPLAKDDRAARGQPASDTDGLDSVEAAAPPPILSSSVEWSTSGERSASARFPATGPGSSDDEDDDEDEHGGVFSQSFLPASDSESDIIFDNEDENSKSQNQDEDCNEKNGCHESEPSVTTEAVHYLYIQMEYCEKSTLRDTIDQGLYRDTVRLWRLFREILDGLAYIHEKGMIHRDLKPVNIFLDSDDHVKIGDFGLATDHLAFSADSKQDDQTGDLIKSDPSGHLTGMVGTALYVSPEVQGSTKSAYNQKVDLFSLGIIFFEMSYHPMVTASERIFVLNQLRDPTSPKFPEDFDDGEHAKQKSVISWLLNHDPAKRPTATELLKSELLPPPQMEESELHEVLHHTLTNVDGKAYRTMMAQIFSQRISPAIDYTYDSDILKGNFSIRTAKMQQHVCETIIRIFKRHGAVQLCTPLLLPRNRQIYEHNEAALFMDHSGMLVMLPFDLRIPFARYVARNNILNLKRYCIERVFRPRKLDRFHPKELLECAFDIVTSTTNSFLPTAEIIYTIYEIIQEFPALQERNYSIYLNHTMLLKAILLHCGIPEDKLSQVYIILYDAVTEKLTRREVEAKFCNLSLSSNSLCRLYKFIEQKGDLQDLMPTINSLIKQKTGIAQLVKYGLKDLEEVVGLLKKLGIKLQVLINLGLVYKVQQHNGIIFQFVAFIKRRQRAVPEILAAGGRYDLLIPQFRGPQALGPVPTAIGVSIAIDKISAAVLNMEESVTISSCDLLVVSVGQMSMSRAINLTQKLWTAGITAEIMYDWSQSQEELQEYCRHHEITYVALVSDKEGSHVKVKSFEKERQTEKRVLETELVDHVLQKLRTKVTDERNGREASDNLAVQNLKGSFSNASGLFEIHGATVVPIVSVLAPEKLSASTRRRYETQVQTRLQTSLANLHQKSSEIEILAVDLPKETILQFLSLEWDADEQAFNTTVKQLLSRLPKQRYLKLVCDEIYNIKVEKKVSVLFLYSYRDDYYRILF

On to `Cc1nnc(-c2ccc(-n3nc(Br)c4cnc(N[C@@H]5CC[C@@H](C(=O)N6CCN(C)C(=O)C6)C5)nc43)cc2)o1` [4-((1R,3R)-3-((3-bromo-1-(4-(5-methyl-1,3,4-oxadiazol-2-yl)phenyl)-1H-pyrazolo[3,4-d]pyrimidin-6-yl)amino)cyclopentane-1-carbonyl)-1-methylpiperazin-2-one], for which the IC50 was in the range of 25 to 200 nM.
As for `O=C1CN(C(=O)[C@@H]2CC[C@@H](Nc3ncc4c(Br)nn(-c5ccc(-c6ncco6)cc5)c4n3)C2)CCN1` [4-((1R,3R)-3-((3-bromo-1-(4-(oxazol-2-yl)phenyl)-1H-pyrazolo[3,4-d]pyrimidin-6-yl)amino)cyclopentane-1-carbonyl)piperazin-2-one], the IC50 lay in the range of 25 to 200 nM.
With `CN1CCN(C(=O)[C@@H]2CC[C@@H](Nc3ncc4c(Br)nn(-c5cc(C(F)F)c6ncccc6c5)c4n3)C2)CC1=O` [4-((1R,3R)-3-((3-bromo-1-(8-(difluoromethyl)quinolin-6-yl)-1H-pyrazolo[3,4-d]pyrimidin-6-yl)amino)cyclopentane-1-carbonyl)-1-methyl-piperazin-2-one], the IC50 lay within 25 to 200 nM.
With `O=C1CN(C(=O)[C@@H]2CC[C@@H](Nc3ncc4c(Br)nn(-c5cc(C(F)F)c6ncccc6c5)c4n3)C2)CCN1` [4-((1R,3R)-3-((3-bromo-1-(8-(difluoromethyl)quinolin-6-yl)-1H-pyrazolo[3,4-d]pyrimidin-6-yl)amino)cyclopentane-1-carbonyl)piperazin-2-one] the figure was 25 to 200 nM; with `CN1CCN(C(=O)[C@@H]2CC[C@@H](Nc3ncc4c(Br)nn(-c5cnc6c(Cl)nccc6c5)c4n3)C2)CC1=O` [4-((1R,3R)-3-((3-bromo-1-(8-chloro-1,7-naphthyridin-3-yl)-1H-pyrazolo[3,4-d]pyrimidin-6-yl)amino)cyclopentane-1-carbonyl)-1-methylpiperazin-2-one], 25 to 200 nM.
Take `CN1CCN(C(=O)[C@@H]2CC[C@@H](Nc3ncc4c(Br)nn(-c5cc(F)c6ncccc6c5)c4n3)C2)CC1=O` [4-((1R,3R)-3-((3-bromo-1-(8-fluoroquinolin-6-yl)-1H-pyrazolo[3,4-d]pyrimidin-6-yl)amino)cyclopentane-1-carbonyl)-1-methyl-piperazin-2-one]: the IC50 lay within 25 to 200 nM.
`O=C1CN(C(=O)[C@@H]2CC[C@@H](Nc3ncc4c(Br)nn(-c5cc(F)c6ncccc6c5)c4n3)C2)CCN1` [4-((1R,3R)-3-((3-bromo-1-(8-fluoroquinolin-6-yl)-1H-pyrazolo[3,4-d]pyrimidin-6-yl)amino)cyclopentane-1-carbonyl)piperazin-2-one]: the IC50 lay in the range of 25 to 200 nM.
Turning to `O=C1CN(C(=O)[C@@H]2CC[C@@H](Nc3ncc4c(Br)nn(-c5cc(F)c6ncccc6c5)c4n3)C2)CC(=O)N1` [4-((1R,3R)-3-((3-bromo-1-(8-fluoroquinolin-6-yl)-1H-pyrazolo[3,4-d]pyrimidin-6-yl)amino)cyclopentane-1-carbonyl)piperazine-2,6-dione], the IC50 was under 25 nM.
Turning to `CN1CCN(C(=O)[C@@H]2CC[C@@H](Nc3ncc4c(Br)nn(-c5ccc6ncccc6c5)c4n3)C2)CC1=O` [4-((1R,3R)-3-((3-bromo-1-(quinolin-6-yl)-1H-pyrazolo[3,4-d]pyrimidin-6-yl)amino)cyclo-pentane-1-carbonyl)-1-methylpiperazin-2-one], the IC50 fell in the range of 25 to 200 nM.
Turning to `CS(=O)(=O)CCNC(=O)C12CCC(Nc3ncc4c(Br)nn(-c5ccc6ncccc6c5)c4n3)(C1)C2` [4-((3-bromo-1-(quinolin-6-yl)-1H-pyrazolo [3,4-d]pyrimidin-6-yl)amino)-N-(2-(methyl-sulfonyl)ethyl)bicyclo[2.1.1]hexane-1-carboxamide], the IC50 is 200 to 500 nM.
As to `COCCNC(=O)C12CCC(Nc3ncc4c(Br)nn(-c5ccc6ncccc6c5)c4n3)(CC1)C2` [4-((3-bromo-1-(quinolin-6-yl)-1H-pyrazolo [3,4-d]pyrimidin-6-yl)amino)-N-(2-methoxyethyl)bicyclo[2.2.1]heptane-1-carboxamide], the IC50 lay within 200 to 500 nM.
For the molecule `O=C(O)C12CCC(Nc3ncc4c(Br)nn(-c5ccc6ncccc6c5)c4n3)(C1)C2` [4-((3-bromo-1-(quinolin-6-yl)-1H-pyrazolo [3,4-d]pyrimidin-6-yl)amino)bicyclo[2.1.1] hexane-1-carboxylic acid], the IC50 fell in the range of 500 to 1000 nM.
With `CNC(=O)[C@]1(C)CCC(Nc2ncc3c(Br)nn(-c4ccc(C(N)=O)c(Cl)c4)c3n2)C1` (stereo partly drawn) [4-[3-bromo-6-[[(3R)-3-methyl-3-(methylcarbamoyl)cyclopentyl]amino]pyrazolo[3,4-d]pyrimidin-1-yl]-2-chloro-benzamide], the IC50 fell in the range of 25 to 200 nM.
With `C[C@@]1(C(=O)N2CCNC(=O)C2)CC[C@@H](Nc2ncc3c(Br)nn(-c4cc(F)c5ncccc5c4)c3n2)C1` [4-[(1R,3R)-3-[[3-bromo-1-(8-fluoro-6-quinolyl)pyrazolo[3,4-d]pyrimidin-6-yl]amino]-1-methyl-cyclopentanecarbonyl] piperazin-2-one], the IC50 was under 25 nM.
As for `Cc1nnc(-c2ccc(-n3nc(Br)c4cnc(N[C@@H]5CC[C@@](C)(C(=O)N6CCNC(=O)C6)C5)nc43)cc2)o1` [4-[(1R,3R)-3-[[3-bromo-1-[4-(5-methyl-1,3,4-oxadiazol-2-yl)phenyl]pyrazolo [3,4-d]pyrimidin-6-yl]amino]-1-methyl-cyclopentanecarbonyl]piperazin-2-one], the IC50 was in the range of 25 to 200 nM.
For the molecule `COc1ccc(-n2nc(Br)c3cnc(N[C@@H]4CC[C@@H](C(=O)N5CCN(C)C(=O)C5)C4)nc32)cc1C#N` [5-(3-bromo-6-(((1R,3R)-3-(4-methyl-3-oxo-piperazine-1-carbonyl)cyclopentyl)amino)-1H-pyrazolo[3,4-d]pyrimidin-1-yl)-2-methoxybenzonitrile], the IC50 is 200 to 500 nM.
In the case of `CNC(=O)[C@]1(C)CC[C@@H](Nc2ncc3c(Br)nn(-c4ccc(-c5nnc(C(=O)NCCN(C)C)s5)cc4)c3n2)C1` [5-[4-[3-bromo-6-[[(1R,3R)-3-methyl-3-(methylcarbamoyl)cyclopentyl]amino]pyrazolo[3,4-d]pyrimidin-1-yl]phenyl]-N-[2-(dimethylamino)ethyl]-1,3,4-thiadiazole-2-carboxamide], the IC50 lay in the range of 25 to 200 nM.
Regarding `CNC(=O)[C@]1(C)CC[C@@H](Nc2ncc3c(Br)nn(-c4ccc(-c5nnc(C(=O)N(C)CCN(C)C)s5)cc4)c3n2)C1` [5-[4-[3-bromo-6-[[(1R,3R)-3-methyl-3-(methylcarbamoyl)cyclopentyl]amino]pyrazolo[3,4-d]pyrimidin-1-yl]phenyl]-N-[2-(dimethylamino)ethyl]-N-methyl-1,3,4-thiadiazole-2-carboxamide], the IC50 fell in the range of 25 to 200 nM.
As to `N#Cc1cc(-n2nc(Br)c3cnc(N[C@@H]4CC[C@@H](C(=O)N5CC(N6CCC(F)(F)C6)C5)C4)nc32)cc2cccnc12` [6-(3-bromo-6-(((1R,3R)-3-(3-(3,3-difluoro-pyrrolidin-1-yl)azetidine-1-carbonyl)cyclo-pentyl)amino)-1H-pyrazolo[3,4-d]pyrimidin-1-yl)quinoline-8-carbonitrile], the IC50 lay within 25 to 200 nM.
On to `N#Cc1cc(-n2nc(Br)c3cnc(N[C@@H]4CC[C@@H](C(=O)N5CC(F)C5)C4)nc32)cc2cccnc12` [6-(3-bromo-6-(((1R,3R)-3-(3-fluoroazetidine-1-carbonyl)cyclopentyl)amino)-1H-pyrazolo [3,4-d]pyrimidin-1-yl)quinoline-8-carbonitrile], for which the IC50 was under 25 nM.
